Values of other authors, collected in patent US20260201040A1, “TREATMENT OF SICKLE CELL DISEASE” (BioLineRx Ltd., priority 2022, published 2026).

Tested on: CD34+ HSCs
Conditions: short-acting CXCR4i, alone

In the case of `c1cc(CN2CCCNCCNCCCNCC2)ccc1CN1CCCNCCNCCCNCC1` [plerixafor], the “yield of optimal HSC numbers for gene therapy applications” value is given as “does not reliably yield optimal HSC numbers”.
